Here are results for one compound from patent US20190374512A1, “COMPOUNDS FOR TREATMENT OF PANCREATIC CANCER” (UNIVERSITY OF TENNESSEE RESEARCH FOUNDATION, priority 2018, published 2019).

The subject of this test is PC-3/Txr tumors. Put plainly: PC-3/Txr tumor growth inhibition, oral dosing. As to conditions: in vivo.

Turning to `CC(=O)O[C@@]12CO[C@@H]1C[C@H](O)[C@@]1(C)C(=O)[C@H](O)C3=C(C)[C@@H](OC(=O)[C@H](O)[C@@H](NC(=O)OC(C)(C)C)c4ccccc4)C[C@@](O)([C@@H](OC(=O)c4ccccc4)[C@H]21)C3(C)C` [docetaxel], the “efficacy in PC-3/Txr tumors” value is recorded as “lack of efficacy”.
